In patent US8398987B2, “Use of platelet glycopeptide IIIa epitopes in the treatment of immune thrombocytopenic purpura” (The University Court of the University of Aberdeen, priority 2007, dated 2013):
“Also recorded” adds a separate entry of the source.

These substances were tested on PBMC from AITP patients (assay: T cell proliferation assay, PBMC from AITP patients stimulated with GPIIIa peptides). Conditions: PBMC from all patients and control donors.
Assay type: cell-based, human
Parameters: PBMC proliferation to control recall antigen or mitogen: dose or concentration left out as unconfirmed
Source text: (§1) The human platelet membrane GPIIIa amino acid sequence (Genebank Accession no: M35999) was synthesized (Pepceuticals, Nottingham, UK) as a complete panel of 86 15-mer peptides, overlapping by 5-10 amino acids (Table 3). Peptide purity was monitored by amino acid analysis and mass spectrometry as reported previously by Barker R N et al in Blood 1997; 90:2701-2715, Scott L et al in Blood 2000; 96:4011-4019 and Cairns L S et al in J Am Soc Nephrol 2003; 14:2801-2812. The peptides were used for stimulation of T cells at the previously determined optimum concentration of […] in culture.
(§2) The antigen mycobacterial purified protein derivative (PPD) (Statens Serumintitut, Denmark) was added to cultures at […] to stimulate positive control recall T cell responses. Concanavalin A (Con A) (Sigma, Poole, Dorset, UK) was used at […] as a positive control T cell mitogen.
Mononuclear cells were recovered from anti-coagulated samples of peripheral blood from AITP patients and control donors by density gradient centrifugation (Lymphoprep; Nycomed, Denmark). Cell viability determined by trypan blue exclusion was greater than 90% in all samples.
Assays of T cell proliferation were carried out, as described by Scott L et al in Blood 2000; 96:4011-4019, Cairns L S et al in J Am Soc Nephrol 2003; 14:2801-2812 and Sukati H et al in Transfusion 2005; 45:1165-1177, under culture conditions designed to favor responses by previously activated T cells, rather than primary responses. Briefly, PBMC were cultured at 1.25×10^6 cells per mL in Alpha Modification of Eagle's Medium (Sigma, Poole, Dorset, UK) supplemented with 5% autologous serum. Synthetic GPIIIa peptides or control stimuli were added to cultures, which were incubated at 37° C. in a humidified atmosphere of 95% air and 5% CO2. T cell proliferation was estimated from the incorporation of 3H-thymidine in triplicate […] samples withdrawn from the cultures 5 days after stimulation, when recall responses peak. Results are presented either as the mean counts per minute (CPM)±SD of the triplicate samples, or as a stimulation index (SI) expressing the ratio of mean CPM in stimulated versus unstimulated control cultures. An SI>3 is interpreted as a positive response.

Substance	PBMC proliferation to control recall antigen or mitogen
Concanavalin A [Con A, reference compound]	proliferated normally

Same assay, conditions: PBMC from patient AITP26

Substance	Stimulatory Peptides (SI > 3)
CECDDFSCVRYKGEM (listed as Homo sapiens) [compound 63, GPIIIa residues 521-535]	> 63

Same assay, conditions: patient AITP22, three occasions over 56 weeks (presentation, 44 weeks, 56 weeks)

Substance	PBMC proliferation in serial samples
ALLIWKLLITIHDRK (listed as Homo sapiens) [peptide 82, GPIIIa residues 711-725]	initially absent but appeared at later time points
DDCVVRFQYYEDSSG (listed as Homo sapiens) [peptide 77, GPIIIa residues 661-675]	seen only in the second sample
DLPEELSLSFNATCL (listed as Homo sapiens) [compound 47, GPIIIa residues 361-375]	initially absent but appeared at later time points
FKDSLIVQVTFDCDC (listed as Homo sapiens) [compound 53, GPIIIa residues 421-435]	initially absent but appeared at later time points
TTRGVSSCQQCLAVS (listed as Homo sapiens) [peptide 2, GPIIIa residues 6-20]	elicited proliferation from all samples

Same assay, conditions: patients expressing an HLA-DR type predicted to bind the peptide with high affinity

Substance	AITP Patients with PBMC Response to Peptide, High Affinity DR Expressed
DDCVVRFQYYEDSSG (listed as Homo sapiens) [peptide 77, GPIIIa residues 661-675]	AITP11,; also recorded: AITP16,; also recorded: AITP22
DLPEELSLSFNATCL (listed as Homo sapiens) [compound 47, GPIIIa residues 361-375]	None
FKDSLIVQVTFDCDC (listed as Homo sapiens) [compound 53, GPIIIa residues 421-435]	AITP11,; also recorded: AITP-12,; also recorded: AITP18,; also recorded: AITP20
GVLSMDSSNVLQLIV (listed as Homo sapiens) [compound 44, GPIIIa residues 331-345]	AITP8,; also recorded: AITP24
PGSYGDTCEKCPTCP (listed as Homo sapiens) [compound 70, GPIIIa residues 591-605]	None
TTRGVSSCQQCLAVS (listed as Homo sapiens) [peptide 2, GPIIIa residues 6-20]	None

Same assay, conditions: patients not expressing an HLA-DR type predicted to bind the peptide with high affinity

Substance	AITP Patients with PBMC Response to Peptide, No High Affinity DR Expressed
ALLIWKLLITIHDRK (listed as Homo sapiens) [peptide 82, GPIIIa residues 711-725]	AITP12
DDCVVRFQYYEDSSG (listed as Homo sapiens) [peptide 77, GPIIIa residues 661-675]	AITP2,; also recorded: AITP8
FKDSLIVQVTFDCDC (listed as Homo sapiens) [compound 53, GPIIIa residues 421-435]	AITP1,; also recorded: AITP8,; also recorded: AITP9,; also recorded: AITP10,; also recorded: AITP22,; also recorded: AITP24
GVLSMDSSNVLQLIV (listed as Homo sapiens) [compound 44, GPIIIa residues 331-345]	AITP1,; also recorded: AITP3,; also recorded: AITP10,; also recorded: AITP18,; also recorded: AITP21,
PGSYGDTCEKCPTCP (listed as Homo sapiens) [compound 70, GPIIIa residues 591-605]	AITP2,; also recorded: AITP7,; also recorded: AITP15,; also recorded: AITP20,; also recorded: AITP24

What follows are substances tested on HLA-class II molecules (HLA-DR, -DQ, -DP) (assay: HLA restriction of PBMC proliferating in response to GPIIIa peptides (blocking antibodies)). Conditions: PBMC from four AITP patients.
Assay type: cell-based, human
Procedure: To determine the HLA Class II restriction of proliferating T cells, […] anti-DR, anti-DQ or anti-DP blocking monoclonal antibodies (Pharmingen, Oxon, UK) were added to replicate cultures before stimulation.
Dominant peptides 2(aa6-20), 47 (aa361-375), 53 (aa421-435) and 82 (aa711-725) were selected for these experiments and used to stimulate PBMC from four AITP patients, in the presence or absence of anti-DP, -DQ or DR. Representative results from one patient are illustrated in FIG. 7.

Substance	blocking of peptide-induced proliferation by anti-DP, -DQ or -DR
ALLIWKLLITIHDRK (listed as Homo sapiens) [peptide 82, GPIIIa residues 711-725]	blocked by at least one of the antibodies
DLPEELSLSFNATCL (listed as Homo sapiens) [compound 47, GPIIIa residues 361-375]	blocked by at least one of the antibodies
FKDSLIVQVTFDCDC (listed as Homo sapiens) [compound 53, GPIIIa residues 421-435]	blocked by at least one of the antibodies
TTRGVSSCQQCLAVS (listed as Homo sapiens) [peptide 2, GPIIIa residues 6-20]	blocked by at least one of the antibodies

These substances were tested on PBMC from healthy control donors (assay: T cell proliferation assay, PBMC from healthy control donors). Conditions: not given.
Assay type: cell-based, human
Source text: as §1, §2
Mononuclear cells were recovered from anti-coagulated samples of peripheral blood from AITP patients and control donors by density gradient centrifugation (Lymphoprep; Nycomed, Denmark). Cell viability determined by trypan blue exclusion was greater than 90% in all samples. […]

Substance	stimulation of PBMC from control donors
ALLIWKLLITIHDRK (listed as Homo sapiens) [peptide 82, GPIIIa residues 711-725]	only dominant sequence to induce proliferation by Th cells from control donors; also recorded: more than one control donor
